Data: publication PMC11985408, “Tsrp1 Is a Novel Cyclic Diguanosine Monophosphate Effector that Plays a Role in the Organic-Solvent Tolerance of Rhodococcus ruber” (Journal of Microbiology and Biotechnology, 2025)

Target: Tsrp1
Assay: localized surface plasmon resonance, Tsrp1 immobilised on NTA chip, one-to-one model
Type: binding, Rhodococcus ruber
Settings: HEPES-buffered saline pH 7.4; c-di-GMP 62.5-500 μM; unit printed as mM in b36 but μM in abstract; read-out: dissociation constant

**Q.** How did the Kd turn out when `Nc1nc2c(ncn2[C@@H]2O[C@@H]3COP(=O)(O)O[C@H]4[C@@H](O)[C@H](n5cnc6c(=O)[nH]c(N)nc65)O[C@@H]4COP(=O)(O)O[C@H]3[C@H]2O)c(=O)[nH]1` [c-di-GMP] was run?
**A.** The Kd was 0.064 ± 0.00684 mM.
